US20250326794A1, “ANTI-CANCER LEUCINE-RICH PEPTIDES AND USES THEREOF” (KING'S COLLEGE LONDON, priority 2019, published 2025)

What was measured:
[1] = ANTS/DPX liposome leakage assay, 3POPC/1POPG vesicles; assay type: biochemical; conditions: 0.5 mM vesicles; for Peptide Concentration-induced 50% ANTS/DPX leakage at pH 4.8, 3POPC/1POPG Vesicle: pH 4.8, lipid per peptide; for Peptide Concentration-induced 50% ANTS/DPX leakage at pH 7.4, 3POPC/1POPG Vesicle: pH 7.4, lipid per peptide
Description: (§1) In brief, 0.5 mM POPC vesicles (grey) or POPC:POPG vesicles (ratio 3:1, black) were incubated with peptide concentrations of 0, 0.02, 0.04, 0.08, 0.16, 0.32, 0.64, 1.25, 2.5, 5, 10, and 20 μM in each A) hydrochloric acid-adjusted phosphate buffered saline (1×, pH 4.8) and B) phosphate buffered saline (1×, pH 7.4).
(§2) The lipids 1-palmitoyl-2-oleoyl-sn-glycero-3-phosphocholine (POPC), 1-palmitoyl-2-oleoyl-snglycero-3-phospho-(1′-rac-glycerol) (POPG) were purchased from Avanti Polar Lipids and dissolved in chloroform. Large unilamellar vesicles (LUVs) were produced by extrusion through 100 nm pore filter using an extruder and filters purchased from Avanti Polar Lipids.
(§3) 5 mM ANTS (8-aminonaphthalene-1,3,6-trisulfonic acid, disodium salt) and 12.5 mM DPX (p-xylene-bis-pyridinium bromide) were entrapped in 0.1 μm diameter extruded vesicles with lipids. Gel filtration chromatography using a Sephadex G-100 (GE Healthcare Life Sciences Inc) was used to remove external free ANTS/DPX from LUVs with entrapped contents. LUVs were diluted to 0.5 mM and used to measure the leakage activity by addition of aliquots of peptides. Leakage was measured after 3 h incubation. 10% Triton was used as the positive control to measure the maximum leakage of the vesicle. Fluorescence emission spectra were recorded using excitation and emission wavelength of 350 nm and 510 nm for ANTS/DPX using a BioTek Synergy H1 Hybrid Multi-Mode Reader.
(§4) Table 4 illustrates peptide concentration-induced 50% ANTS/DPX liposome leakage. 0.5 mM POPC and 3POPC/1POPG vesicles were fixed and incubated with titrated peptide concentration ([…]) each in phosphate buffered saline (1×, pH 7.4) and hydrochloric acid-adjusted phosphate buffered saline (1×, pH 4.8). The values are shown as lipid per peptide. †N-terminus is free, C-terminus: —W—NH2.

[2] = Tryptophan fluorescent binding assay, POPC vesicles; conditions: 50 μM peptide, PBS pH 7.4, lipid per peptide
Description: (§5) In brief, 50 μM peptides were fixed and incubated with titrated POPC vesicles (black) or 3POPC/1POPG vesicles (grey) at concentrations of 0, 12.5, 25, 50, 100, 250, 500, 1000, 2500, and 5000 μM in phosphate buffered saline (1×, pH 7.4). The lipid concentration that causes 50% peptide binding was determined using a tryptophan fluorescent binding assay and the values are shown as lipid per peptide.
as §2
(§6) Peptides (50 μM) and POPC/POPG LUVs (600 μM) were prepared in 10 mM phosphate buffer (pH 7.0). The solutions were incubated and measured after 60 minutes. Excitation was fixed at 280 nm (slit 9 nm) and emission was collected from 300 to 450 nm (slit 9 nm). The spectra were recorded using a Synergy H1 Hybrid Multi-Mode Reader (FIG. 3A) and Cytation™ 5 Cell Imaging Multi-Mode Reader (FIG. 2) from BioTek and were averaged over 3 scans.
(§7) Table 3 illustrates the lipid concentration-induced 50% peptide binding onto a liposome. 50 μM peptide was fixed and incubated with titrated lipid (POPC vesicles or 3POPC/1POPG vesicles) at concentrations of 0, 12.5, 25, 50, 100, 250, 500, 1000, 2500, and 5000 μM in phosphate buffered saline (1×, pH 7.4). The lipid concentration that causes 50% peptide binding was determined using tryptophan fluorescent binding assay and the values are shown as lipid per peptide. †N-terminus is free, C-terminus: —W—NH2.

[3] = Tryptophan fluorescent binding assay, 3POPC/1POPG vesicles; conditions: 50 μM peptide, PBS pH 7.4, lipid per peptide
Description: as §5, §2, §6, §7

[4] = ANTS/DPX liposome leakage assay, POPC vesicles; assay type: biochemical; conditions: 0.5 mM vesicles; for Peptide Concentration-induced 50% ANTS/DPX leakage at pH 4.8, POPC Vesicle: pH 4.8, lipid per peptide; for Peptide Concentration-induced 50% ANTS/DPX leakage at pH 7.4, POPC Vesicle: pH 7.4, lipid per peptide
Description: as §1, §2, §3, §4

[5] = tested on: U2OS (human bone osteosarcoma); conditions: 72 h
Source text: (§8) HMLER (human mammary endothelial cancer cells), HMLER-shEcad (human mammary endothelial cancer stem cells), and MCF-10A (healthy human mammary endothelial) cells were maintained in Mammary Epithelial Cell Growth Medium (MEGM) with supplements and growth factors: bovine pituitary extract (BPE), hydrocortisone, human epidermal growth factor (hEGF), insulin, and gentamicin/amphotericin-B. HEK293T (human embryonic kidney cell), and U2OS (Homo sapiens bone osteosarcoma) cells were maintained in Dulbecco's Modified Eagle's Medium (DMEM) with a final concentration of 10% fetal bovine serum. The cells were grown in T75 flask at 310 K in a humidified atmosphere containing 5% CO2.
(§9) The colourimetric MTT (3-(4,5-dimethylthiazol-2-yl)-2,5-diphenyltetrazolium bromide) assay was used to determine the toxicity of the anticancer peptides and conventional anticancer drugs. 5×10^3 cells were seeded in each well of a 96-well microplate. The cells were incubated overnight. Elevated concentrations of the compounds (0, 0.1, 0.2, 0.4, 0.8, 1.6, 3.1, 6.3, 12.5, 25, 50 and 100 μM) were added and incubated for 72 hr with a total volume 200 μL. The stock solutions of the compounds were prepared as 5 mM solutions in DMSO and diluted using media or in pure water. The final concentration of DMSO in each well was either 0.5% or 0% and this amount was present in the untreated control. After 72 hr, 20 μL of a 4 mg/mL solution of MTT in PBS was added to each well, and the plate was incubated for an additional 4 hr. The MEGM/MTT mixture was aspirated and 100 μL of DMSO was added to dissolve the resulting purple formazan crystals. The absorbance of the solutions in each well was read at 550 nm wavelength. Absorbance values were normalized to either DMSO-containing or non DMSO-containing control wells and plotted as concentration of test compound versus % cell viability. IC50 values were interpolated from the resulting dose dependent curves.
(§10) The peptides were screened against several different human cell lines and their cytotoxicity were determined. Cell lines utilised include MCF-10A (human breast epithelial cell), HMLER (human breast cancer bulk cell), HMLER-shEcad (human breast cancer stem cell), HEK293T (human embryonic kidney cell), and U2OS (human bone osteosarcoma).

[6] = tested on: HEK293T (human embryonic kidney cell); experiment: cells; conditions: 72 h
Source text: as §8, §9, §10

[7] = tested on: HMLER-shEcad (human breast cancer stem cell); experiment: cells; conditions: 72 h
Source text: as §8, §9, §10

[8] = tested on: HMLER (human breast cancer bulk cell); experiment: cells; conditions: 72 h
Source text: as §8, §9, §10

SMILES	Peptide Concentration-induced 50% ANTS/DPX leakage at pH 4.8, 3POPC/1POPG Vesicle [1]	Peptide Concentration-induced 50% ANTS/DPX leakage at pH 7.4, 3POPC/1POPG Vesicle [1]	Lipid Concentration-induced 50% Peptide Binding, POPC Vesicle [2]	Lipid Concentration-induced 50% Peptide Binding, 3POPC/1POPG Vesicle [3]	Peptide Concentration-induced 50% ANTS/DPX leakage at pH 4.8, POPC Vesicle [4]	Peptide Concentration-induced 50% ANTS/DPX leakage at pH 7.4, POPC Vesicle [4]	IC50 [5]	IC50 [6]	IC50 [7]	IC50 [8]
CC(C)C[C@H](NC(=O)CN)C(=O)N[C@@H](CC(C)C)C(=O)N[C@@H](CCCCN)C(=O)N[C@@H](CC(C)C)C(=O)N[C@@H](CC(C)C)C(=O)N[C@@H](CCC(=O)O)C(=O)N[C@@H](CC(C)C)C(=O)N[C@@H](CC(C)C)C(=O)N[C@@H](CC(C)C)C(=O)N[C@@H](CCCCN)C(=O)N[C@@H](C)C(=O)N[C@@H](C)C(=O)NCC(=O)N[C@@H](Cc1c[nH]c2ccccc12)C(N)=O [KEK]	126 L/P	438 L/P	0.47 L/P	0.50 L/P	110 L/P	1173 L/P	8.15 ± 0.49 µM	3.2 ± 0.14 µM	1.35 ± 0.07 µM	1.6 ± 0.14 µM
CC(C)C[C@H](NC(=O)CN)C(=O)N[C@@H](CC(C)C)C(=O)N[C@@H](CC(=O)O)C(=O)N[C@@H](CC(C)C)C(=O)N[C@@H](CC(C)C)C(=O)N[C@@H](Cc1c[nH]cn1)C(=O)N[C@@H](CC(C)C)C(=O)N[C@@H](CC(C)C)C(=O)N[C@@H](CC(C)C)C(=O)N[C@@H](Cc1c[nH]cn1)C(=O)N[C@@H](C)C(=O)N[C@@H](C)C(=O)NCC(=O)N[C@@H](Cc1c[nH]c2ccccc12)C(N)=O [DHH]	98 L/P	692 L/P	0.67 L/P	0.28 L/P	106 L/P	684 L/P	55.9 ± 18.9 µM	6.4 ± 0.42 µM	11.9 ± 0.14 µM	21.4 ± 2.47 µM
CC(C)C[C@H](NC(=O)CN)C(=O)N[C@@H](CC(C)C)C(=O)N[C@@H](Cc1c[nH]cn1)C(=O)N[C@@H](CC(C)C)C(=O)N[C@@H](CC(C)C)C(=O)N[C@@H](CCC(=O)O)C(=O)N[C@@H](CC(C)C)C(=O)N[C@@H](CC(C)C)C(=O)N[C@@H](CC(C)C)C(=O)N[C@@H](CCC(=O)O)C(=O)N[C@@H](C)C(=O)N[C@@H](C)C(=O)NCC(=O)N[C@@H](Cc1c[nH]c2ccccc12)C(N)=O [HEE]	122 L/P	792 L/P	0.58 L/P	0.50 L/P	100 L/P	876 L/P	47.5 ± 11 µM	10.2 ± 0.2 µM	4.95 ± 0.49 µM	6.5 ± 0.71 µM
CC(C)C[C@H](NC(=O)CN)C(=O)N[C@@H](CC(C)C)C(=O)N[C@@H](CCC(=O)O)C(=O)N[C@@H](CC(C)C)C(=O)N[C@@H](CC(C)C)C(=O)N[C@@H](Cc1c[nH]cn1)C(=O)N[C@@H](CC(C)C)C(=O)N[C@@H](CC(C)C)C(=O)N[C@@H](CC(C)C)C(=O)N[C@@H](Cc1c[nH]cn1)C(=O)N[C@@H](C)C(=O)N[C@@H](C)C(=O)NCC(=O)N[C@@H](Cc1c[nH]c2ccccc12)C(N)=O [EHH]	80 L/P	981 L/P	0.94 L/P	0.69 L/P	386 L/P	1043 L/P	117 ± 7 µM	5.9 ± 0.14 µM	16.1 ± 3.18 µM	25.4 ± 2.76 µM
CC(C)C[C@H](NC(=O)CN)C(=O)N[C@@H](CC(C)C)C(=O)N[C@@H](CCCCN)C(=O)N[C@@H](CC(C)C)C(=O)N[C@@H](CC(C)C)C(=O)N[C@@H](CCCCN)C(=O)N[C@@H](CC(C)C)C(=O)N[C@@H](CC(C)C)C(=O)N[C@@H](CC(C)C)C(=O)N[C@@H](CCC(=O)O)C(=O)N[C@@H](C)C(=O)N[C@@H](C)C(=O)NCC(=O)N[C@@H](Cc1c[nH]c2ccccc12)C(N)=O [KKE]	131 L/P	346 L/P	0.48 L/P	0.44 L/P	143 L/P	1133 L/P	12.8 ± 1.2 µM	4.4 ± 0.14 µM	1.7 µM	2.05 ± 0.64 µM
CC(C)C[C@H](NC(=O)CN)C(=O)N[C@@H](CC(C)C)C(=O)N[C@@H](CCC(=O)O)C(=O)N[C@@H](CC(C)C)C(=O)N[C@@H](CC(C)C)C(=O)N[C@@H](CCCCN)C(=O)N[C@@H](CC(C)C)C(=O)N[C@@H](CC(C)C)C(=O)N[C@@H](CC(C)C)C(=O)N[C@@H](Cc1c[nH]cn1)C(=O)N[C@@H](C)C(=O)N[C@@H](C)C(=O)NCC(=O)N[C@@H](Cc1c[nH]c2ccccc12)C(N)=O [EKH]	88 L/P	365 L/P	0.75 L/P	0.19 L/P	55 L/P	608 L/P	23.8 ± 0.81 µM	6.65 ± 1.34 µM	2.18 ± 0.31 µM	2.75 ± 0.07 µM
